A word on the melting point: it is the temperature, or range, at which the solid turns liquid. In general, inhibition refers to how much of the control response was suppressed. The term Ki denotes the equilibrium dissociation constant of an inhibitor or competing ligand from its target.

Structures can show the parent of a compound that is named as a salt.

We go through 25 compounds from patent publication US8993765B2, “Tetrahydro-azacarboline MCH-1 antagonists, methods of making, and uses thereof” (Albany Molecular Research, Inc., priority 2010, dated 2015).

human MCH-1 receptor, sequence (Q99705 whole entry): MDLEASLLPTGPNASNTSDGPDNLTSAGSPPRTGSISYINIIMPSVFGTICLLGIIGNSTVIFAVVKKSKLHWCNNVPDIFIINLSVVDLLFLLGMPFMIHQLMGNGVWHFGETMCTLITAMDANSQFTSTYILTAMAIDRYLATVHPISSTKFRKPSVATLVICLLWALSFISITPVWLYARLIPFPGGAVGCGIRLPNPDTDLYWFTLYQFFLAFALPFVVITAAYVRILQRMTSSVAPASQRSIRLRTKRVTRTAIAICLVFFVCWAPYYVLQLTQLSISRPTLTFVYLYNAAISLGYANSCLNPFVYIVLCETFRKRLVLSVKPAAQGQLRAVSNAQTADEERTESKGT

Test system in the first data set: not given
Test: not given
Conditions: not given
For `O=c1cc(-c2ccc(C(F)(F)F)nc2)ccn1-c1ccn2c3c(nc2c1)CCNC3` (as salt: hydrochloride) [Example 24, 1-(1,2,3,4-Tetrahydropyrido[4′,3′:4,5]imidazo[1,2-a]pyridin-7-yl)-4-(6-(trifluoromethyl)pyridin-3-yl)pyridin-2(1H)-one hydrochloride], the melting point is 265 °C (dec.).

With `O=c1cc(OCc2ccc(C(F)(F)F)nc2)ccn1-c1ccn2c3c(nc2c1)CCNC3` (as salt: hydrochloride) [Example 25, 1-(1,2,3,4-Tetrahydropyrido[4′,3′:4,5]imidazo[1,2-a]pyridin-7-yl)-4-((6-(trifluoromethyl)pyridin-3-yl)methoxy)pyridin-2(1H)-one hydrochloride], the melting point was 265 °C (dec.).

The compound `CC(=O)N1CCc2c(c3ccc(-n4ccc(-c5ccc(C(F)(F)F)nc5)cc4=O)nc3n2C)C1` [Example 9, 1-(6-Acetyl-9-methyl-5,7,8,9-tetrahydro-6H-pyrido[3′,4′:4,5]pyrrolo[2,3-b]pyridin-2-yl)-4-(6-(trifluoromethyl)pyridin-3-yl)pyridin-2(1H)-one] yielded a melting point of 238 to 242 °C.

As for `Cl.Cn1c2c(c3ccc(-n4ccc(-c5ccc(C(F)(F)F)cc5)cc4=O)nc31)CNCC2` [Example 10, 1-(9-Methyl-5,7,8,9-tetrahydro-6H-pyrido[3′,4′:4,5]pyrrolo[2,3-b]pyridin-2-yl)-4-(4-(trifluoromethyl)phenyl)pyridin-2(1H)-one hydrochloride], the melting point was 278 to 281 °C (dec.).

On to `CC(=O)N1CCc2c(c3ccc(-n4ccc(OCc5ccccc5)cc4=O)nc3n2C)C1` [Example 11, 1-(6-Acetyl-9-methyl-5,7,8,9-tetrahydro-6H-pyrido[3′,4′:4,5]pyrrolo[2,3-b]pyridin-2-yl)-4-(benzyloxy)pyridin-2(1H)-one], for which the melting point lay in the range of 206 to 208 °C.

In the case of `CC1Cc2c(c3ccc(N4CCN(CCc5ccc(F)cc5)CC4=O)nc3n2C)CN1.Cl` (centres unmarked) [Example 12, 1-(7,9-Dimethyl-5,7,8,9-tetrahydro-6H-pyrido[3′,4′:4,5]pyrrolo[2,3-b]pyridin-2-yl)-4-(4-fluorophenethyl)piperazin-2-one hydrochloride], the melting point lay within 252 to 256 °C.

Another data set addresses human MCH-1 receptor (Homo sapiens (Human), UniProt Q99705). Put plainly: Binding Assay for Human Melanin-Concentrating Hormone (MCH-1) Receptor. The conditions noted are these: @ 1 uM test compound; membranes of CHO-K1 cells expressing human MCH-1 receptor; read-out: MCH1 percent inhibition of control radioligand specific binding. The protocol: Binding Assay for Human Melanin-Concentrating Hormone (MCH-1) Receptor
Evaluation of the affinity of compounds for the human MCH-1 receptor was accomplished using 4-(3,4,5-tritritiumbenzyloxy)-1-(1-(2-(pyrrolidin-1-yl)ethyl)-1H-indazol-5-yl)pyridin-2(1H)-one and membranes prepared from stable CHO-K1 cells expressing the human MCH-1 receptor obtained from Euroscreen (Batch 1138). Cell membrane homogenates (8.92 μg protein) were incubated for 60 min at 25° C. with […] of the [^3H]-labeled compound in the absence or presence of the test compound in 50 mM Tris-HCl buffer, pH 7.4. Nonspecific binding was determined in the presence of 50 μM 1-(5-(4-cyanophenyl)bicyclo[3.1.0]hexan-2-yl)-3-(4-fluoro-3-(trifluoromethyl)phenyl)-1-(3-(4-methylpiperazin-1-yl)propyl)urea. Following incubation, the samples were filtered rapidly under vacuum through Skatron 11731 filters, pre-soaked in 0.5% polyethylenimine, and washed with ice-cold 50 mM Tris-HCl buffer, pH 7.4, (wash setting 9,9,0) using a Skatron cell harvester. The filters were counted for radioactivity in a liquid scintillation counter (Tri-Carb 2100TR, Packard) using a scintillation cocktail (Ultima Gold MV, Perkin Elmer).
The results are expressed as a percent inhibition of the control radioligand specific binding. The IC50 value (concentration causing a half-maximal inhibition of control specific binding) and Hill coefficient (nH) were determined by non-linear regression analysis of the competition curve using Hill equation curve fitting. The inhibition constant (Ki) was calculated from the Cheng Prusoff equation: (Ki=IC50/(1+(L/KD)), where L=concentration of radioligand in the assay, and KD=affinity of the radioligand for the receptor.
As for `O=c1cc(-c2ccc(C(F)(F)F)cc2)ccn1-c1ccc2c(c1)nc1n2CCNC1` [Example 20, 1-(1,2,3,4-Tetrahydropyrazino[1,2-a]benzimidazol-8-yl)-4-(4-(trifluoromethyl)phenyl)pyridin-2(1H)-one hydrochloride], the inhibition at 1 µM was found to be 61%.

Still in this data set, the particulars now being: radioligand displacement, membranes of CHO-K1 cells expressing human MCH-1 receptor; Ki by Cheng Prusoff equation; hydrochloride; read-out: MCH1 Ki.
For the compound `CC1Cc2c(c3ccc(-n4ccc(OCc5ccccc5)cc4=O)nc3n2C)CN1` (single isomer, unassigned; (-)) [Example 17, (−)-4-(Benzyloxy)-1-(7,9-dimethyl-5,7,8,9-tetrahydro-6H-pyrido[3′,4′:4,5]pyrrolo[2,3-b]pyridin-2-yl)pyridin-2(1H)-one hydrochloride], the Ki was determined as 0.0091 µM.

The same data set, now with this note: radioligand displacement, membranes of CHO-K1 cells expressing human MCH-1 receptor; Ki by Cheng Prusoff equation; read-out: MCH1 Ki.
Regarding `CC(=O)N1Cc2c(n(C)c3nc(-n4ccc(OCc5ccccc5)cc4=O)ccc23)CC1C` (single isomer, unassigned; enantiomer a) [Example 29, 1-(6-Acetyl-7,9-dimethyl-5,7,8,9-tetrahydro-6H-pyrido[3′,4′:4,5]pyrrolo[2,3-b]pyridin-2-yl)-4-(benzyloxy)pyridin-2(1H)-one (Enantiomer A)], the Ki is 0.081 µM.

`Cn1c2c(c3ccc(-n4ccc(OCc5ccccc5)cc4=O)nc31)CNCC2` [Example 2, 4-(Benzyloxy)-1-(9-methyl-5,7,8,9-tetrahydro-6H-pyrido[3′,4′:4,5]pyrrolo[2,3-b]pyridin-2-yl)pyridin-2(1H)-one dihydrochloride]: the inhibition constant Ki was determined as 0.0071 µM.

Regarding `Cn1c2c(c3ccc(N4CCN(CCc5ccccc5)CC4=O)nc31)CNCC2` [Example 3, 1-(9-Methyl-5,7,8,9-tetrahydro-6H-pyrido[3′,4′:4,5]pyrrolo[2,3-b]pyridin-2-yl)-4-phenethylpiperazin-2-one dihydrochloride], the Ki was 0.047 µM.

In the case of `Cn1c2c(c3ccc(-n4ccc(OCc5ccc(F)cn5)cc4=O)nc31)CNCC2` [Example 4, 4-((5-Fluoropyridin-2-yl)methoxy)-1-(9-methyl-5,7,8,9-tetrahydro-6H-pyrido[3′,4′:4,5]pyrrolo[2,3-b]pyridin-2-yl)pyridin-2(1H)-one hydrochloride], the inhibitory constant (Ki) came to 0.015 µM.

Consider `Cn1c2c(c3ccc(-n4ccc(-c5ccc(C(F)(F)F)nn5)cc4=O)nc31)CNCC2` [Example 5, 1-(9-Methyl-5,7,8,9-tetrahydro-6H-pyrido[3′,4′:4,5]pyrrolo[2,3-b]pyridin-2-yl)-4-(6-(trifluoromethyl)pyridazin-3-yl)pyridin-2(1H)-one hydrochloride], for which the Ki turned out to be 0.105 µM.

With `Cn1c2c(c3ccc(-n4ccc(-c5ccc(C(F)(F)F)nc5)cc4=O)nc31)CNCC2` [Example 6, 1-(9-Methyl-5,7,8,9-tetrahydro-6H-pyrido[3′,4′:4,5]pyrrolo[2,3-b]pyridin-2-yl)-4-(6-(trifluoromethyl)pyridin-3-yl)pyridin-2(1H)-one hydrochloride], the Ki is 0.015 µM.

As for `Cn1c2c(c3ccc(-n4ccc(OCc5ccc(C(F)(F)F)nc5)cc4=O)nc31)CNCC2` [Example 7, 1-(9-Methyl-5,7,8,9-tetrahydro-6H-pyrido[3′,4′:4,5]pyrrolo[2,3-b]pyridin-2-yl)-4-((6-(trifluoromethyl)pyridin-3-yl)methoxy)pyridin-2(1H)-one hydrochloride], the Ki amounted to 0.071 µM.

As to `Cn1c2c(c3ccc(-n4ccc(-c5ccc(C(F)(F)F)cn5)cc4=O)nc31)CNCC2` [Example 8, 1-(9-Methyl-5,7,8,9-tetrahydro-6H-pyrido[3′,4′:4,5]pyrrolo[2,3-b]pyridin-2-yl)-4-(5-(trifluoromethyl)pyridin-2-yl)pyridin-2(1H)-one hydrochloride], the Ki is 0.033 µM.

In the case of `CC(=O)N1CCc2c(c3ccc(-n4ccc(-c5ccc(C(F)(F)F)nc5)cc4=O)nc3n2C)C1` [Example 9, 1-(6-Acetyl-9-methyl-5,7,8,9-tetrahydro-6H-pyrido[3′,4′:4,5]pyrrolo[2,3-b]pyridin-2-yl)-4-(6-(trifluoromethyl)pyridin-3-yl)pyridin-2(1H)-one], the Ki is 0.078 µM.

In the case of `Cl.Cn1c2c(c3ccc(-n4ccc(-c5ccc(C(F)(F)F)cc5)cc4=O)nc31)CNCC2` [Example 10, 1-(9-Methyl-5,7,8,9-tetrahydro-6H-pyrido[3′,4′:4,5]pyrrolo[2,3-b]pyridin-2-yl)-4-(4-(trifluoromethyl)phenyl)pyridin-2(1H)-one hydrochloride], the Ki was found to be 0.0047 µM.

For `CC(=O)N1CCc2c(c3ccc(-n4ccc(OCc5ccccc5)cc4=O)nc3n2C)C1` [Example 11, 1-(6-Acetyl-9-methyl-5,7,8,9-tetrahydro-6H-pyrido[3′,4′:4,5]pyrrolo[2,3-b]pyridin-2-yl)-4-(benzyloxy)pyridin-2(1H)-one], the inhibition constant Ki came out at 0.071 µM.

As to `CC1Cc2c(c3ccc(N4CCN(CCc5ccc(F)cc5)CC4=O)nc3n2C)CN1.Cl` (centres unmarked) [Example 12, 1-(7,9-Dimethyl-5,7,8,9-tetrahydro-6H-pyrido[3′,4′:4,5]pyrrolo[2,3-b]pyridin-2-yl)-4-(4-fluorophenethyl)piperazin-2-one hydrochloride], the Ki is 0.058 µM.

Take `Cn1c2c(c3ccc(-n4ccc(OCc5ccc(Cl)cc5Cl)cc4=O)nc31)CNCC2` [Example 15, 4-((2,4-Dichlorophenyl)methoxy)-1-(9-methyl-5,7,8,9-tetrahydro-6H-pyrido[3′,4′:4,5]pyrrolo[2,3-b]pyridin-2-yl)pyridin-2(1H)-one hydrochloride]: the inhibition constant (Ki) worked out at 0.017 µM.

Regarding `O=c1cc(OCc2ccccc2)ccn1-c1ccc2c(c1)nc1n2CCNC1` [Example 18, 4-(Benzyloxy)-1-(1,2,3,4-tetrahydropyrazino[1,2-a]benzimidazol-8-yl)pyridin-2(1H)-one hydrochloride], the Ki was determined as 0.062 µM.

With `CC(C)N1CCn2c(nc3cc(-n4ccc(OCc5ccccc5)cc4=O)ccc32)C1` [Example 21, 4-(Benzyloxy)-1-(2-(propan-2-yl)-1,2,3,4-tetrahydropyrazino[1,2-a]benzimidazol-8-yl)pyridin-2(1H)-one hydrochloride], the Ki turned out to be 0.094 µM.

With `O=c1cc(OCc2ccc(F)cn2)ccn1-c1ccn2c3c(nc2c1)CCNC3` [Example 23, 4-((5-Fluoropyridin-2-yl)methoxy)-1-(1,2,3,4-tetrahydropyrido[4′,3′:4,5]imidazo[1,2-a]pyridin-7-yl)pyridin-2(1H)-one hydrochloride], the inhibition constant (Ki) is 0.03 µM.

`O=c1cc(-c2ccc(C(F)(F)F)nc2)ccn1-c1ccn2c3c(nc2c1)CCNC3` [Example 24, 1-(1,2,3,4-Tetrahydropyrido[4′,3′:4,5]imidazo[1,2-a]pyridin-7-yl)-4-(6-(trifluoromethyl)pyridin-3-yl)pyridin-2(1H)-one hydrochloride]: the Ki came out at 0.616 µM.

Regarding `O=c1cc(OCc2ccc(C(F)(F)F)nc2)ccn1-c1ccn2c3c(nc2c1)CCNC3` [Example 25, 1-(1,2,3,4-Tetrahydropyrido[4′,3′:4,5]imidazo[1,2-a]pyridin-7-yl)-4-((6-(trifluoromethyl)pyridin-3-yl)methoxy)pyridin-2(1H)-one hydrochloride], the Ki was determined as 3.32 µM.

On to `O=c1cc(-c2ccc(C(F)(F)F)cc2)ccn1-c1ccn2c3c(nc2c1)CCNC3` [Example 26, 1-(1,2,3,4-Tetrahydropyrido[4′,3′:4,5]imidazo[1,2-a]pyridin-7-yl)-4-(4-(trifluoromethyl)phenyl)pyridin-2(1H)-one hydrochloride], for which the Ki amounted to 0.023 µM.

Consider `CC(C)N1CCc2nc3cc(-n4ccc(OCc5ccccc5)cc4=O)ccn3c2C1` [Example 27, 4-(Benzyloxy)-1-(2-(propan-2-yl)-1,2,3,4-tetrahydropyrido[4′,3′:4,5]imidazo[1,2-a]pyridin-7-yl)pyridin-2(1H)-one hydrochloride], for which the Ki worked out at 0.019 µM.

As for `Cn1c2c(c3ccc(-n4ccc(OCc5ccccc5)cc4=O)nc31)C(=O)NCC2` [Example 28, 4-(Benzyloxy)-1-(9-methyl-5-oxo-5,7,8,9-tetrahydro-6H-pyrido[3′,4′:4,5]pyrrolo[2,3-b]pyridin-2-yl)pyridin-2(1H)-one], the Ki stood at 0.103 µM.
